Experimental data from article PMC12017303 (Science Advances, 2025).
In brackets after ≈: the same amount, converted by molar mass.

How the values were obtained:
[1] = test system: human cytochrome P450 (CYP) isoforms
in vitro [2] = conditions: plasma
[3] = test system: panel of 40 receptors, ion channels (including the hERG channel), and serine and cysteine proteases
in vitro [4] = conditions: human, microsomes, pH 7.4
HCoV Alpha 229E = assay: organism not typed; assay type: cell-based, HCoV 229E; conditions: Huh-7
[5] = test system: SARS-CoV-2 WA.1 (icSARS-CoV-2-mNG) in A549-ACE2^h; assay: microbe, parasite or virus in culture; assay type: cell-based; conditions: for EC50: Severe acute respiratory syndrome coronavirus 2, read-out: Viral replication in A549-ACE2^h EC50: WA.1
[6] = test system: SARS-CoV-2 XBB.1.16 in A549-ACE2^h; assay: microbe, parasite or virus in culture; assay type: cell-based; conditions: Severe acute respiratory syndrome coronavirus 2, read-out: Viral replication in A549-ACE2^h EC50: XBB.1.16
SARS-CoV-1 M^Pro = SARS-CoV-1 M^Pro (Severe acute respiratory syndrome coronavirus, UniProt P0C6X7); assay: biochemical
[7] = molecular target: SARS-CoV-2 M^Pro (Cys^145) (Severe acute respiratory syndrome coronavirus 2, UniProt P0DTD1); assay type: binding
[8] = test system: SARS-CoV-2 BA.2 (omicron); assay: microbe, parasite or virus in culture; assay type: cell-based; conditions: Severe acute respiratory syndrome coronavirus 2, Vero C1008
SARS-CoV-2 M^Pro = SARS-CoV-2 M^Pro (Severe acute respiratory syndrome coronavirus 2, UniProt P0DTD1); assay type: biochemical
[9] = test system: SARS-CoV-2 EG.5.1 in A549-ACE2^h; assay: microbe, parasite or virus in culture; assay type: cell-based; conditions: Severe acute respiratory syndrome coronavirus 2, read-out: Viral replication in A549-ACE2^h EC50: EG.5.1
[10] = test system: SARS-CoV-2 mNeon XBB.1.16 in A549-ACE2^h; assay type: cell-based
[11] = test system: SARS-CoV-2 mNeon WA1 in A549-ACE2^h; assay type: cell-based
in vitro [12] = conditions: African green monkey
SARS-CoV Urbani = assay: microbe, parasite or virus in culture; assay type: cell-based; conditions: Severe acute respiratory syndrome coronavirus, Vero C1008
physchem = conditions: pH 7.4, aqueous buffer, kinetic from dmso stock
MERS-CoV EMC = assay: microbe, parasite or virus in culture; assay type: cell-based; conditions: Middle East respiratory syndrome-related coronavirus, Vero C1008
in vitro [13] = conditions: mouse, microsomes, pH 7.4
[14] = test system: SARS-CoV-2 BA.2.86.1 replicon in Vero ACE2 TMPRSS2; assay: microbe, parasite or virus in culture; assay type: cell-based; conditions: Severe acute respiratory syndrome coronavirus 2, Vero, read-out: Replicon replication in Vero ACE2 TMPRSS2 EC50: BA.2.86.1
in vivo [15] = conditions: male, CD-1, mouse; for AUC(0-t): AUClast; for Vd: Vss
P-gp (MDR1) = assay: in vitro; conditions: dog; for Papp B→A: MDCK-MDR1; for Papp A→B: MDCK-MDR1, MDCK AB
in vivo [16] = conditions: mouse
[17] = test system: SARS-CoV-2 XBB.1.5 in A549-ACE2^h; assay: microbe, parasite or virus in culture; assay type: cell-based; conditions: Severe acute respiratory syndrome coronavirus 2, read-out: Viral replication in A549-ACE2^h EC50: XBB.1.5
HAPLN1 = HAPLN1 (Homo sapiens, UniProt P10915); assay type: binding
in vitro [18] = conditions: PAMPA, pH 7.4
HCoV Beta OC43 = assay: microbe, parasite or virus in culture; assay type: cell-based; conditions: Betacoronavirus 1, OC43
CYP2C8 = CYP2C8 (Homo sapiens, UniProt P10632); conditions: human, pH 7.4
[19] = male, CD-1, mouse, in vivo; for AUClast / Plasma T½: po, 50 mg/kg
in vitro [20] = conditions: human
[21] = test system: SARS-CoV-2 WA.1 replicon in Vero ACE2 TMPRSS2; assay: microbe, parasite or virus in culture; assay type: cell-based; conditions: Severe acute respiratory syndrome coronavirus 2, Vero, read-out: Replicon replication in Vero ACE2 TMPRSS2 EC50: WA.1
cathepsin L2 = cathepsin L2 (Homo sapiens, UniProt O60911)
[22] = mouse, pH 7.4
[23] = assay type: physicochemical; conditions: 10 μM
[24] = human, pH 7.4
[25] = rat, in vivo; cited from earlier work
[26] = pH 7.4, plasma protein binding (PPB)

Chain of HAPLN1 (P10915 16-354): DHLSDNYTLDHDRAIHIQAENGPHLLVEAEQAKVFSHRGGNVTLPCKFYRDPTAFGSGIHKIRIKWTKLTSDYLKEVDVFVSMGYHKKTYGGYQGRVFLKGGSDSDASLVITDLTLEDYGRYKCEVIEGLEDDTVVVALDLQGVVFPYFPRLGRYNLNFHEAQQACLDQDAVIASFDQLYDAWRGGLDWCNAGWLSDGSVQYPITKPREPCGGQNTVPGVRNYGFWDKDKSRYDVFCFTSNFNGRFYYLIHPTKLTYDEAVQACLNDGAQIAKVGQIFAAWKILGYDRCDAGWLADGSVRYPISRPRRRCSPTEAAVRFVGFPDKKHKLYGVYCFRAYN
Chain of cathepsin L2 (O60911 114-334): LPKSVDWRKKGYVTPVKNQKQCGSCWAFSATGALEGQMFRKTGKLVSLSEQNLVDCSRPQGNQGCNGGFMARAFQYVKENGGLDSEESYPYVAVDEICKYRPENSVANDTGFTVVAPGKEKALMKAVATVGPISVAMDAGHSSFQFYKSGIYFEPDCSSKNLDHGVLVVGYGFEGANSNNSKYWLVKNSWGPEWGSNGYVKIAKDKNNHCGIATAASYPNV
Chain of CYP2C8 (P10632 whole entry): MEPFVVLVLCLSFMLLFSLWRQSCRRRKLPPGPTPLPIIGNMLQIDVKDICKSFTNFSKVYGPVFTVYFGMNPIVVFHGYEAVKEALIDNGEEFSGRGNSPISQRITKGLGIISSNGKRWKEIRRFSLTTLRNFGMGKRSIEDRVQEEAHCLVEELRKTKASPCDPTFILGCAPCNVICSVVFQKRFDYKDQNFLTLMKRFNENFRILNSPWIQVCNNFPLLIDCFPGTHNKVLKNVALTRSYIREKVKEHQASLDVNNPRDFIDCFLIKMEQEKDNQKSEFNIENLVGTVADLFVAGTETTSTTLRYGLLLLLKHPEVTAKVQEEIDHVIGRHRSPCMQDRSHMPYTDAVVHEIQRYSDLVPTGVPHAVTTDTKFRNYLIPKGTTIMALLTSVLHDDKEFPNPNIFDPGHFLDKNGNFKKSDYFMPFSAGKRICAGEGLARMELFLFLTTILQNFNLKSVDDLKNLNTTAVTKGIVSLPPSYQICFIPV

## C#CCn1c(C)c(-n2nnc3ccccc32)c(=O)n(-c2cncc3ccccc23)c1=O [AVI-4516]
[1]; human, pH 7.4
  inhibition across the CYP panel: ≤ 25%
In vitro [2]; pH 7.4, PPB
  fraction unbound: 0.37
In vitro [2]; [26]
  fraction unbound: 0.39
[3]
  off-target activity across panel, result in words: no substantial inhibition or interference with any of the off-targets
In vitro [4]
  half-life: > 2 h
HCoV Alpha 229E
  EC50: 2900 nM
  EC90: 3500 nM
[5]
  EC50: 38 nM
[5]; Severe acute respiratory syndrome coronavirus 2, read-out: cellular 90% effective concentration (EC90)
  EC90: 97 nM
[6]
  EC50: 34 nM
SARS-CoV-1 M^Pro
  IC50: 55 nM
[7]
  covalent adduct by whole protein MS: single modification consistent with the mass of AVI-4516
[8]
  EC50: 180 nM
  EC90: 390 nM
SARS-CoV-2 M^Pro
  M^Pro activity after dialysis: activity was not regained
[9]
  EC50: 37 nM
[10]
  synergy with molnupiravir (ZIP analysis): synergy was observed at several concentrations
[11]
  synergy with molnupiravir (ZIP analysis): a minor effect was observed in the direction of positive synergy
In vitro [12]
  CC50: > 100000 nM
SARS-CoV Urbani
  EC50: 570 nM
  EC90: 1000 nM
physchem
  solubility: 347 µM (≈ 142 µg/mL)
MERS-CoV EMC
  EC50: < 32 nM
In vitro [13]
  half-life: > 2 h
[14]
  EC50: 130 nM
In vivo [15]; F
  bioavailability: 174%
In vivo [15]; iv, 10 mg/kg
  MRT inf: 0.798 h
  clearance: 29 mL/min/kg
  half-life: 0.866 h
  AUC(0-t): 5730 ng·h/mL
  Vd: 1.39 L/kg
In vivo [15]; iv, 10 mg/kg, AUCINF
  AUC(0-inf): 5740 ng·h/mL
In vivo [15]; oral bioavailability (%F)
  bioavailability: > 100%
In vivo [15]; po, 50 mg/kg
  half-life: 4.7 h
  AUC(0-t): 49900 ng·h/mL
In vivo [15]; po, 50 mg/kg, AUCINF
  AUC(0-inf): 69500 ng·h/mL
In vivo [15]; po, 50 mg/kg, AUCinf
  AUC(0-inf): 69500 ng·h/mL
In vivo [15]; po, 50 mg/kg, CMax
  Cmax: 10100 ng/mL
In vivo [15]; po, 50 mg/kg, Cmax
  Cmax: 10100 ng/mL
In vivo [15]; po, 50 mg/kg, TMax
  Tmax: 1 h
In vivo [15]; po, 50 mg/kg, Tmax
  Tmax: 1 h
P-gp (MDR1)
  Papp B→A: 45.2 ×10⁻⁶ cm/s
  Papp A→B: 13.3 ×10⁻⁶ cm/s
In vivo [16]
  Kp: ~0.05
[17]
  EC50: 30 nM
HAPLN1
  increase in Tm of HAPLN1: 5.77 °C
In vitro [18]
  Papp: 22.4 ×10⁻⁶ cm/s
HCoV Beta OC43
  EC50: 590 nM
  EC90: 520 nM
CYP2C8
  CYP2C8 inhibition: ~ 45%
[19]
  Mouse F: 57
  free concentration in plasma: 2615 nM
  AUClast: 49900 ng·h/mL
  Plasma T½: 4.7 h
In vitro [20]
  CC50: > 100000 nM
  viability at 100 µM: 90.4%
[21]
  EC50: 160 nM

## O=c1[nH]c(-c2ccc(Cl)c(Cl)c2)c(-n2nnc3cc(F)c(F)cc32)c(=O)n1-c1cncc2ccccc12 [AVI-4673]
In vitro [2]; pH 7.4, PPB
  fraction unbound: 0.005
Cathepsin L2
  cathepsin L2 inhibition, result in words: low-micromolar inhibitor
In vitro [4]
  half-life: > 2 h
[5]
  EC50: 190 nM
[6]
  EC50: 360 nM
[9]
  EC50: 230 nM
physchem
  solubility: 475 µM (≈ 255 µg/mL)
In vitro [13]
  half-life: > 2 h
[14]
  EC50: 280 nM
In vivo [15]; F
  bioavailability: 71.6%
In vivo [15]; iv, 10 mg/kg
  MRT inf: 1.53 h
  clearance: 51.7 mL/min/kg
  half-life: 2.19 h
  AUC(0-t): 3100 ng·h/mL
  Vd: 4.75 L/kg
In vivo [15]; iv, 10 mg/kg, AUCINF
  AUC(0-inf): 3220 ng·h/mL
In vivo [15]; po, 50 mg/kg
  half-life: 2.12 h
  AUC(0-t): 11500 ng·h/mL
In vivo [15]; po, 50 mg/kg, AUCINF
  AUC(0-inf): 11500 ng·h/mL
In vivo [15]; po, 50 mg/kg, AUCinf
  AUC(0-inf): 11500 ng·h/mL
In vivo [15]; po, 50 mg/kg, CMax
  Cmax: 2420 ng/mL
In vivo [15]; po, 50 mg/kg, Cmax
  Cmax: 2420 ng/mL
In vivo [15]; po, 50 mg/kg, TMax
  Tmax: 4 h
In vivo [15]; po, 50 mg/kg, Tmax
  Tmax: 2 h
P-gp (MDR1)
  Papp B→A: 18.4 ×10⁻⁶ cm/s
  Papp A→B: 2.1 ×10⁻⁶ cm/s
[17]
  EC50: 150 nM
In vitro [18]
  Papp: 4.99 ×10⁻⁶ cm/s
[19]
  Mouse F: 76
  AUClast: 11500 ng·h/mL
  Plasma T½: 2.12 h
In vitro [20]
  CC50: > 100000 nM
  viability at 100 µM: 94.4%
[21]
  EC50: 940 nM

## C#CCn1c(-c2ccc(Cl)c(Cl)c2)c(-n2nnc3cc(F)c(F)cc32)c(=O)n(-c2cncc3ccccc23)c1=O [AVI-4694]
[1]; 10 μM
  inhibition of several CYP isoforms: > 50%
In vitro [2]; pH 7.4, PPB
  fraction unbound: 0.003
In vitro [2]; [26]
  fraction unbound: < 0.01
[3]
  off-target activity across panel, result in words: low-micromolar inhibition of nine enzymes/receptors in the panel
HCoV Alpha 229E
  EC50: > 1600 nM
  EC90: > 1600 nM
[5]
  EC50: 71 nM
[6]
  EC50: 0.32 nM
SARS-CoV-1 M^Pro
  IC50: 66 nM
[7]
  covalent adduct by whole protein MS: mass shifts consistent with modification at a single site
[8]
  EC50: 50 nM
  EC90: 45 nM
SARS-CoV-2 M^Pro
  M^Pro activity after dialysis: activity was not regained
[22]
  MLM T1/2: > 2 h
[9]
  EC50: 0.22 nM
SARS-CoV Urbani
  EC50: 52 nM
  EC90: 91 nM
physchem
  solubility: 2.4 µM (≈ 1.38 µg/mL)
MERS-CoV EMC
  EC50: 45 nM
In vitro [13]
  half-life: 1.6 h
[23]
  particle formation by dynamic light scattering (DLS): formed particles
[14]
  EC50: 12 nM
In vivo [15]; F
  bioavailability: 63.5%
In vivo [15]; iv, 10 mg/kg
  MRT inf: 2.6 h
  clearance: 9.37 mL/min/kg
  half-life: 1.72 h
  AUC(0-t): 17300 ng·h/mL
  Vd: 1.46 L/kg
In vivo [15]; iv, 10 mg/kg, AUCINF
  AUC(0-inf): 17800 ng·h/mL
In vivo [15]; po, 50 mg/kg
  half-life: 1.87 h
  AUC(0-t): 56500 ng·h/mL
In vivo [15]; po, 50 mg/kg, AUCINF
  AUC(0-inf): 56500 ng·h/mL
In vivo [15]; po, 50 mg/kg, AUCinf
  AUC(0-inf): 56500 ng·h/mL
In vivo [15]; po, 50 mg/kg, CMax
  Cmax: 5770 ng/mL
In vivo [15]; po, 50 mg/kg, Cmax
  Cmax: 5770 ng/mL
In vivo [15]; po, 50 mg/kg, TMax
  Tmax: 4 h
In vivo [15]; po, 50 mg/kg, Tmax
  Tmax: 4 h
P-gp (MDR1)
  Papp B→A: 13.8 ×10⁻⁶ cm/s
  Papp A→B: 8.2 ×10⁻⁶ cm/s
[17]
  EC50: 0.3 nM
HCoV Beta OC43
  EC50: 55 nM
  EC90: 61 nM
[24]
  HLM T1/2: > 2 h
[19]
  Mouse F: 64
  AUClast: 56500 ng·h/mL
  Plasma T½: 1.87 h
[21]
  EC50: 13 nM

## CC(C)(C)[C@H](NC(=O)C(F)(F)F)C(=O)N1C[C@H]2[C@@H]([C@H]1C(=O)N[C@H](C#N)C[C@@H]1CCNC1=O)C2(C)C [nirmatrelvir, reference compound]
[5]
  EC50: 31 nM
[6]
  EC50: 41 nM
[9]
  EC50: 67 nM
[25]
  brain concentrations relative to EC90: only three times the respective EC90 value
[14]
  EC50: 810 nM
[17]
  EC50: 21 nM
[21]
  EC50: 620 nM
